According to PubChem BioAssay AID652285 (Sanford-Burnham Center for Chemical Genomics, 2013):
Several values for one entry are separate records, joined by “and”; a condition that tells them apart may be missing. Equal entries are not always repeated. Activity calls are given as the source filed them.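 How the source made its calls: active means IC50 at or below 60 µM; inactive means the rest.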

Molecular target: COP9 signalosome complex subunit 5 (Homo sapiens) (UniProt Q92905)
Test: Csn5 deneddylase inhibition by analogues, SAR follow-up, selectivity assay for RPN11 inhibitor project, biochemical, fluorescence polarization, Cul-Nedd8-OG substrate (AID 652285)
Conditions: Csn5 deneddylation of SCF-Nedd8-OG

Chain of COP9 signalosome complex subunit 5 (Homo sapiens) (Q92905 whole entry, looked up, one chain of several): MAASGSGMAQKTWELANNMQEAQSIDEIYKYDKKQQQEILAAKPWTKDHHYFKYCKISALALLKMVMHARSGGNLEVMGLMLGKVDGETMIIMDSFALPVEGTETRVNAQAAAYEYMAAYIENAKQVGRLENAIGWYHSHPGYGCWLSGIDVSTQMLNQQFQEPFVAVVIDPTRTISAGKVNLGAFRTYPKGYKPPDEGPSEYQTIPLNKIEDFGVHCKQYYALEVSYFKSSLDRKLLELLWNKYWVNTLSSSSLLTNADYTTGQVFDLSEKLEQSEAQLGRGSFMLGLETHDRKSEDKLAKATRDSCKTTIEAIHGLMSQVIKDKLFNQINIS

| SMILES | IC50 |
| --- | --- |
| O=C(Sc1cccc2cccnc12)c1ccc([N+](=O)[O-])cc1 | 20.2 µM |
| CC(C)(C)OC(=O)CCNC(=O)c1cnc2c(SSc3cccc4cc(C(=O)NCCC(=O)OC(C)(C)C)cnc34)cccc2c1 | 34.7 µM |
| O=C(Sc1cccc2cccnc12)c1ccc(F)cc1F | inactive |
| COc1ccccc1C(=O)Sc1cccc2cccnc12 | 14.2 µM and 8.37 µM |
| O=C(Sc1cccc2cccnc12)c1ccccc1I | 11.2 µM |
| COC(=O)[C@H](C)NC(=O)c1cnc2c(SSc3cccc4cc(C(=O)N[C@@H](C)C(=O)OC)cnc34)cccc2c1 | 15.4 µM |
| CCOc1ccccc1C(=O)Sc1cccc2cccnc12 | 9.27 µM and 34.4 µM |
| O=C(Sc1cccc2cccnc12)c1cccc(C(F)(F)F)c1 | > 95 µM (inactive) |
| N#Cc1cccc(C(=O)Sc2cccc3cccnc23)c1 | inactive |
| O=C(Sc1cccc2cccnc12)c1ccc2c(c1)OCO2 | 18.3 µM |
| N#Cc1ccc(C(=O)Sc2cccc3cccnc23)cc1 | > 95 µM (inactive) |
| COC(=O)[C@H](CC(C)C)NC(=O)c1cnc2c(SSc3cccc4cc(C(=O)N[C@@H](CC(C)C)C(=O)OC)cnc34)cccc2c1 | 12.7 µM |
| COC(=O)[C@H](CO)NC(=O)c1cnc2c(SSc3cccc4cc(C(=O)N[C@@H](CO)C(=O)OC)cnc34)cccc2c1 | 42.7 µM |
| O=C(Sc1cccc2cccnc12)c1ccccc1F | > 95 µM (inactive) |
| C[C@@H](C(=O)O)N(C)C(=O)c1cnc2c(SSc3cccc4cc(C(=O)N(C)[C@@H](C)C(=O)O)cnc34)cccc2c1 | 16.6 µM |
| Cc1ccccc1C(=O)Sc1cccc2cccnc12 | 20.8 µM |
| COC(=O)[C@H](C)NC(=O)c1ccnc2c(SSc3cccc4c(C(=O)N[C@@H](C)C(=O)OC)ccnc34)cccc12 | 16.8 µM |
| CCCc1ccc(C(=O)Sc2cccc3cccnc23)cc1 | 10.7 µM |
| Cc1ccc(C(=O)Sc2cccc3cccnc23)cc1 | > 95 µM (inactive) |
| O=C(Sc1cccc2cccnc12)c1ccccc1Cl | 14.1 µM |
| COc1ccc(C(=O)Sc2cccc3cccnc23)cc1 | 9.61 µM |

Now from value to compound:

| IC50 | SMILES |
| --- | --- |
| 9.33 µM | CC(C)C[C@H](NC(=O)c1cnc2c(SSc3cccc4cc(C(=O)N[C@@H](CC(C)C)C(=O)O)cnc34)cccc2c1)C(=O)O |
| 8.63 µM | COC(=O)[C@H](C)N(C)C(=O)c1cnc2c(SSc3cccc4cc(C(=O)N(C)[C@@H](C)C(=O)OC)cnc34)cccc2c1 |
| 4.3 µM | O=C(Sc1cccc2cccnc12)c1ccc(F)cc1 |
| 1.91 µM | O=C(Sc1cccc2cccnc12)c1cccc(Cl)c1 |
| 5.36 µM | O=C(Sc1cccc2cccnc12)c1ccc(F)c(F)c1 |
| 8.24 µM | O=C(Sc1cccc2cccnc12)c1ccccc1[N+](=O)[O-] |
| 5.4 µM | O=C(O)[C@@H]1CCCN1C(=O)c1cnc2c(SSc3cccc4cc(C(=O)N5CCC[C@H]5C(=O)O)cnc34)cccc2c1 |
| 3.95 µM | O=C(Sc1cccc2cccnc12)c1c(Cl)cccc1Cl |
| 4.77 µM | O=C(Sc1cccc2cccnc12)c1ccccc1 |
| 5.76 µM | CC[C@@H](C)[C@H](NC(=O)c1cnc2c(SSc3cccc4cc(C(=O)N[C@H](C(=O)O)[C@H](C)CC)cnc34)cccc2c1)C(=O)O |
| 8.81 µM | COc1ccc(C(=O)Sc2cccc3cccnc23)cc1OC |
| 7.62 µM | COC(=O)[C@@H](NC(=O)c1cnc2c(SSc3cccc4cc(C(=O)N[C@H](C(=O)OC)C(C)C)cnc34)cccc2c1)C(C)C |
| 8.9 µM | O=C(Sc1cccc2cccnc12)c1cccc2ccccc12 |
| 6.5 µM | COc1ccc(C(=O)Sc2cccc3cccnc23)cc1F |
| 6.26 µM | O=C(Sc1cccc2cccnc12)c1ccc(C(F)(F)F)cc1 |
| 9.48 µM | O=C(Sc1cccc2cccnc12)c1ccccc1OC(F)(F)F |
| 5.44 µM | O=C(Sc1cccc2cccnc12)c1ccccc1Br |
